Experimental findings from US12202835B2, “Substituted aromatic ring-linked dioxinoquinazolines and dioxinoquinolines as kinase inhibitors” (BEIJING SCITECH-MQ PHARMACEUTICALS LIMITED, priority 2018, dated 2025) are described below.

In one experiment the target is TRKA kinase (Homo sapiens (Human), UniProt P04629). Put plainly: Assay of small molecular compounds for inhibiting the activity of TRKA kinase (LANCE TR-FRET). Format: biochemical. In outline:
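LANCE TR-FRET with ULight-TK peptide; compounds pre-incubated 5 min with TRKA (2× solution 2 nM), then substrate/ATP added (4× mix: 400 nM peptide, 40 μM ATP). Reaction 60 min at room temperature in dark, 1% DMSO final; stopped, detection developed 60 min, signal read.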
A general note: In TR-FRET formats the signal depends on donor and acceptor labels being close together.

For a further experiment, the target named is VEGFR-2 kinase (Homo sapiens (Human), UniProt P35968). Put plainly: Assay of small molecular compounds for inhibiting the activity of VEGFR-2 kinase (LANCE TR-FRET). The experiment is classed as biochemical. As to conditions: read-out: VEGFR2 IC50. In outline:
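LANCE TR-FRET with human VEGFR-2 (2× stock 0.5 nM) preincubated 30 min with compound (final 2500 to 0.042 nM, 11-point 3-fold), then ULight-JAK-1 (Tyr1023) peptide/ATP added (4× stocks 200 nM/40 μM). Reaction 60 min room temperature, 4% DMSO; IC50 from inhibition-rate curve.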

The next experiment has as its system Ba/F3-AXL cells. Put plainly: Assay for inhibiting the proliferation of Ba/F3-AXL cells (CCK-8). Conditions: 72 hours of incubation, medium with 100 ng/mL hGas6, CCK-8. The experiment is classed as cell-based. As for the experimental part: The values were then imported into Graphpad Prism 5 software for curve fitting, and IC50 was calculated.

pIC50: −log10 of the molar value. Bounds are passed on as bounds.

Sequence of VEGFR-2 kinase (P35968 20-1356): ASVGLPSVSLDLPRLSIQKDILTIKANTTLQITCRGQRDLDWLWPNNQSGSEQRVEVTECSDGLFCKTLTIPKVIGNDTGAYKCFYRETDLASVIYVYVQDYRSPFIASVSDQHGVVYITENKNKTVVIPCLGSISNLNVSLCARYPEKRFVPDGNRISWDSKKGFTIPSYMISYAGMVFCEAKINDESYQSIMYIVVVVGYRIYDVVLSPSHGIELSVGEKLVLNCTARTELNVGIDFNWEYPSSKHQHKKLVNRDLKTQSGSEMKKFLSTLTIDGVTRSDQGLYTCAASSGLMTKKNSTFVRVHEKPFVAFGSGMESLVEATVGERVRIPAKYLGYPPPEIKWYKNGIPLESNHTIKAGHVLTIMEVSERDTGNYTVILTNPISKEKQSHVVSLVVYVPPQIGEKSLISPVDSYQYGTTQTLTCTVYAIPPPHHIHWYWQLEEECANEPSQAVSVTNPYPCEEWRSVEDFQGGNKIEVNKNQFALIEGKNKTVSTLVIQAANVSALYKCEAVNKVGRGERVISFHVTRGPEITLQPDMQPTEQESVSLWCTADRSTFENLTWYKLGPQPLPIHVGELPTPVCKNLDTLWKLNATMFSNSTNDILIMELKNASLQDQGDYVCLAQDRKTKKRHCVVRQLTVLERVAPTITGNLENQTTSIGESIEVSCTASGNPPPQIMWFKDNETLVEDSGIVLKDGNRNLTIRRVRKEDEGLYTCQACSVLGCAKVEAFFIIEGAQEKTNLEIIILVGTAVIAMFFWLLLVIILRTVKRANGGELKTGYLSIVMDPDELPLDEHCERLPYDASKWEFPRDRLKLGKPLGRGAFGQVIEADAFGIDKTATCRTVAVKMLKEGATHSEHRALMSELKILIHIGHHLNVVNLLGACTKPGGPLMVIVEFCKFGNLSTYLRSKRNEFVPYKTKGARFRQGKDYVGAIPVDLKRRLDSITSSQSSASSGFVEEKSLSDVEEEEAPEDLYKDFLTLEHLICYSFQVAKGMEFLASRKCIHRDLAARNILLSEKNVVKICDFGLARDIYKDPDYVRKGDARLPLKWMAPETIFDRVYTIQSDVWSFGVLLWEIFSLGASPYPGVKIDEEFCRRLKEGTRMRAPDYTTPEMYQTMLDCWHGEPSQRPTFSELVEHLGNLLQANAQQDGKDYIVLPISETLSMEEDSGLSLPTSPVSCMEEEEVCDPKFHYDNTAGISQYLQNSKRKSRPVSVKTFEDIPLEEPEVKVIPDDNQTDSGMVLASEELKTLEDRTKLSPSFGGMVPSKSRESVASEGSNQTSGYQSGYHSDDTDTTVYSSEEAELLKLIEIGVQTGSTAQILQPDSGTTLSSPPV
Sequence of TRKA kinase (P04629 33-796): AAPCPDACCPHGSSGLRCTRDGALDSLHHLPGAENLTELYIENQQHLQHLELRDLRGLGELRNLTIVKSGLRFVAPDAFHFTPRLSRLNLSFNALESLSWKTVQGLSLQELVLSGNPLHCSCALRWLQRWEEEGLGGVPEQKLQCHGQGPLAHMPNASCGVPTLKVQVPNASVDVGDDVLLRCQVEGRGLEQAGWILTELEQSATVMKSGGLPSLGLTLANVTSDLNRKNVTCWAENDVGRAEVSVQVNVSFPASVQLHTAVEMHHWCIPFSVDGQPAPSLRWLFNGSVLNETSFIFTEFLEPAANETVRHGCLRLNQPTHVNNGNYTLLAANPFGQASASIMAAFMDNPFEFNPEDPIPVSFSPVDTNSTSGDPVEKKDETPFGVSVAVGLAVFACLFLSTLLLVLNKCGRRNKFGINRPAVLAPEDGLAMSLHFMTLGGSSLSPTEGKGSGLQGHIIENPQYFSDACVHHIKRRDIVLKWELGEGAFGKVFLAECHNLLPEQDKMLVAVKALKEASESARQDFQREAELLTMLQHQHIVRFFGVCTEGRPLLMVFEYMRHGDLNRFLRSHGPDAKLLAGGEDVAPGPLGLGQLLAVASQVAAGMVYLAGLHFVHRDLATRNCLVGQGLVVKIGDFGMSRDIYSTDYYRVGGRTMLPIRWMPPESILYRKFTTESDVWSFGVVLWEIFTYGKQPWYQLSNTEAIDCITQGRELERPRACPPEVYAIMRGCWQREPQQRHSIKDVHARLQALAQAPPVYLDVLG

Turning to `COc1cc2nccc(Oc3ccc(NC(=O)c4cn(CC(=O)O)c(=O)n(-c5ccc(F)cc5)c4=O)cc3F)c2c2c1OCCO2` [Example 104, 2-(5-((3-fluoro-4-((5-methoxy-2,3-dihydro-[1,4]dioxino[2,3-f]quinolin-10-yl)oxy)phenyl)carbamoyl)-3-(4-fluorophenyl)-2,4-dioxo-3,4-dihydropyrimidin-1(2H)-yl)acetic acid], the pIC50 against TRKA kinase is above 7.30; at VEGFR-2 kinase it was below 5.30; in the experiment on Ba/F3-AXL cells, below 5.30.
On to `O=C(Nc1ccc(Oc2ncnc3cc(OCCCN4CCOCC4)c4c(c23)OCCO4)c(F)c1)c1cccn(-c2ccc(F)cc2)c1=O` [Example 4, N-(3-fluoro-4-((5-(3-morpholinopropoxy)-2,3-dihydro-[1,4]dioxino[2,3-f]quinazolin-10-yl)oxy)phenyl)-1-(4-fluorophenyl)-2-oxo-1,2-dihydropyridine-3-carboxamide], for which the pIC50 was above 7.30 against TRKA kinase, at least 7.30 on VEGFR-2 kinase and above 7.30 in the experiment on Ba/F3-AXL cells.
Consider `COCCOc1cc2nccc(Oc3ccc(NC(=O)c4cccn(-c5ccc(F)cc5)c4=O)cc3F)c2c2c1OCCO2` [Example 34, N-(3-fluoro-4-((5-(2-methoxyethoxy)-2,3-dihydro-[1,4]dioxino[2,3-f]quinolin-10-yl)oxy)phenyl)-1-(4-fluorophenyl)-2-oxo-1,2-dihydropyridine-3-carboxamide], for which the negative logarithm of the IC50 (pIC50) on TRKA kinase was above 7.30; on VEGFR-2 kinase, at least 7.30; in the experiment with Ba/F3-AXL cells it was above 7.30.
On to `CCn1cc(C(=O)Nc2ccc(Oc3ccnc4cc(OCCCN5CCCCC5)c5c(c34)OCCO5)c(F)c2)c(=O)n(-c2ccc(F)cc2)c1=O` [Example 41, N-(3-fluoro-4-((5-(3-(piperidin-1-yl)propoxy)-2,3-dihydro-[1,4]dioxino[2,3-f]quinolin-10-yl)oxy)phenyl)-3-(4-fluorophenyl)-1-ethyl-2,4-dioxo-1,2,3,4-tetrahydropyrimidine-5-carboxamide], for which the pIC50 is above 7.30 against TRKA kinase, 6.30 to 7.30 on VEGFR-2 kinase and above 7.30 in the experiment with Ba/F3-AXL cells.
Consider `CCn1cc(C(=O)Nc2ccc(Oc3ccnc4cc(OC)c5c(c34)OCCO5)c(F)c2)c(=O)n(-c2ccc(F)cc2)c1=O` [Example 37, N-(3-fluoro-4-((5-methoxy-2,3-dihydro-[1,4]dioxino[2,3-f]quinolin-10-yl)oxy)phenyl)-3-(4-fluorophenyl)-1-ethyl-2,4-dioxo-1,2,3,4-tetrahydropyrimidine-5-carboxamide], for which the pIC50 is above 7.30 against TRKA kinase, 6.30 to 7.30 on VEGFR-2 kinase and above 7.30 in the experiment with Ba/F3-AXL cells.
With `Cn1cc(C(=O)Nc2ccc(Oc3ccnc4cc(OCCCN5CCCCC5)c5c(c34)OCCO5)c(F)c2)c(=O)n(-c2ccc(F)cc2)c1=O` [Example 39, N-(3-fluoro-4-((5-(3-(piperidin-1-yl)propoxy)-2,3-dihydro-[1,4]dioxino[2,3-f]quinolin-10-yl)oxy)phenyl)-3-(4-fluorophenyl)-1-methyl-2,4-dioxo-1,2,3,4-tetrahydropyrimidine-5-carboxamide], the pIC50 at TRKA kinase was above 7.30; on VEGFR-2 kinase, 6.30 to 7.30; in the experiment with Ba/F3-AXL cells it was above 7.30.
Regarding `CCOc1ccn(-c2ccc(F)cc2)c(=O)c1C(=O)Nc1ccc(Oc2ccnc3cc(OCCCC#N)c4c(c23)OCCO4)cc1Cl` [Example 134, N-(2-chloro-4-((5-(3-cyanopropoxy)-2,3-dihydro-[1,4]dioxino[2,3-f]quinolin-10-yl)oxy)phenyl)-1-(4-fluorophenyl)-4-ethoxy-2-oxo-1,2-dihydropyridine-3-carboxamide], the pIC50 on TRKA kinase is above 7.30; at VEGFR-2 kinase, 6.30 to 7.30; in the experiment on Ba/F3-AXL cells it was above 7.30.
With `COCCOc1cc2nccc(Oc3ccc(NC(=O)c4cn(C)c(=O)n(-c5ccc(F)cc5)c4=O)cc3F)c2c2c1OCCO2` [Example 42, N-(3-fluoro-4-((5-(2-methoxyethoxy)-2,3-dihydro-[1,4]dioxino[2,3-f]quinolin-10-yl)oxy)phenyl)-3-(4-fluorophenyl)-1-methyl-2,4-dioxo-1,2,3,4-tetrahydropyrimidine-5-carboxamide], the pIC50 is above 7.30 on TRKA kinase, 6.30 to 7.30 on VEGFR-2 kinase and above 7.30 with Ba/F3-AXL cells.

Broadly, the pIC50 is the negative decadic logarithm of the IC50, by convention in mol/L.
